Source: patent EP1157024B1, “ACETYLENIC ORTHO-SULFONAMIDO AND PHOSPHINIC ACID AMIDO BICYCLIC HETEROARYL HYDROXAMIC ACIDS AS TACE INHIBITORS” (American Cyanamid Company, priority 1999, dated 2000)
Where two headings read alike, the source gives them in different places.

Tests used:
THP-1 cells = assay: THP-1 soluble protein assay (human monocytic THP-1 cell differentiation assay); format: cell-based; settings: read-out: THP % inhibition at 3µM, LPS-stimulated THP-1 cells
From the text: Mitogenic stimulation of THP-1 cells cause differentiation into macrophage like cells with concomitant secretion of tumor necrosis factor (TNF-•) and TNF receptor (TNF-R p75/80 and TNF-R p55/60) and Interleukin-8 (IL-8), among other proteins. In addition, non-stimulated THP-1 cells shed both the p75/80 and the p55/60 receptors over time. […] THP-1 cells (from ATCC) are a human monocytic cell line which were obtained from the peripheral blood of a person with acute monocytic leukemia. They can be grown in culture and differentiated into macrophage like cells by stimulation with mitogens. For the assay, THP-1 cells are seeded from an ATCC stock which was previously grown and frozen back at 5 x 10^6/ml/vial. […] Each vial of cells are cultured for about two weeks prior to being used for an assay and then are used for only 4 to 6 weeks to screen compounds. Cells are subcultured on Mondays and Thursdays to a concentration of 1 x 10^5/ml. […] At the same time, […] of drug, vehicle or THP-1 media is plated in appropriate wells to give a final volume of 1.2 ml/well. […] Cell exposure to DMSO was limited to 0.1 % final concentration. Positive control wells were included in the experiment which had mitogen added but no drug. Vehicle control wells were included as well, which were identical to the positive control wells, except that DMSO was added to give a final concentration of 0.083%. Negative control wells were included in the experiment which had vehicle but no mitogen or drug added to the cells. Compounds can be evaluated for their effect on basal (non-stimulated) shedding of the receptors by replacing the LPS with […] of THP-1 media. Plates are placed into an incubator set at 5% CO2 and at 37 °C. After 4 hours of incubation, […] of tissue culture supernatant (TCS) is removed for use in an TNF-α ELISA. Following 24 hours of incubation, […] of TCS is removed and used for analysis in TNF-R p75/80, TNF-R p55/60 and IL-8 ELISAs. In addition, at the 24 hours timepoint, and the cells for each treatment group are collected by resuspension in 500 µl/well of THP-1 media and transferred into a FACS tube. Two ml/tube of a 0.5 mg/ml stock of propidium iodide (PI) (Boerhinger Mannheim cat. # 1348639) is added. The samples are run on a Becton Dickinson FaxCaliber FLOW cytometry machine and the amount of dye taken up by each cell is measured in the high red wavelength (FL3). Only cells with compromised membranes (dead or dying) can take up PI. The percent of live cells is calculated by the number of cells not stained with PI, divided by the total number of cells in the sample. The viability values calculated for the drug treated groups were compared to the viability value calculated for the vehicle treated mitogen stimulated group ("vehicle positive control") to determine the "percent change from control". This "percent change from control" value is an indicator of drug toxicity. The quantity of soluble TNF-α, TNF-R p75/80 and TNF-R p55/60 and IL-8 in the TCS of the THP-1 cell cultures are obtained with commercially available ELISAs from R&D Systems, by extrapolation from a standard curve generated with kit standards. The number of cells that either take up or exclude PI are measured by the FLOW cytometry machine and visualized by histograms using commercially available Cytologic software for each treatment group including all controls. […]

[1] = target: TNF-α converting enzyme (TACE) (Homo sapiens, UniProt P78536); assay: TACE inhibition (fluorescent peptidyl substrate); format: biochemical
Sequence of TNF-α converting enzyme (TACE) (P78536 215-824, species assumed): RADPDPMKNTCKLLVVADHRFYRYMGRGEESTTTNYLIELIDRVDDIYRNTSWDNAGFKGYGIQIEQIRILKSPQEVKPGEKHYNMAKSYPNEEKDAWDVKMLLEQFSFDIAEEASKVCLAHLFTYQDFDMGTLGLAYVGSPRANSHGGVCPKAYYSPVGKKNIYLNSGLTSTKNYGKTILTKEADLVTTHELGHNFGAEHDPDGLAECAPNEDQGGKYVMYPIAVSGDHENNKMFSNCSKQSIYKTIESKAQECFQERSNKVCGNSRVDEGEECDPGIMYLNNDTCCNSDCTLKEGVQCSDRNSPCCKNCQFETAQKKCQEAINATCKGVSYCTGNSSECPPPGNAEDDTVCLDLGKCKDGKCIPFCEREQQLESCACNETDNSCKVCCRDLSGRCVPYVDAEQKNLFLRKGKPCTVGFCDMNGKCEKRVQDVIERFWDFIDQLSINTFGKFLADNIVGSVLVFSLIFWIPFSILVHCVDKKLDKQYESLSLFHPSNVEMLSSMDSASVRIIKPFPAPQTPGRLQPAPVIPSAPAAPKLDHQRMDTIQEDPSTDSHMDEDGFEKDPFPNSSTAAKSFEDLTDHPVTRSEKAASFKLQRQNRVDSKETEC
Procedure: Using 96-well black microtiter plates, each well receives a solution composed of 10 µL TACE (final concentration 1µg/mL), 70µL Tris buffer, pH 7.4 containing 10% glycerol (final concentration 10 mM), and 10 µL of test compound solution in DMSO (final concentration 1µM, DMSO concentration <1%) and incubated for 10 minutes at room temperature.
The reaction is read (excitation 340 nm, emission 420 nm) for 10 min. and the increase in fluorescence over time is plotted as a linear line. The slope of the line is calculated and represents the reaction rate.
The linearity of the reaction rate is confirmed (r^2 >0.85). The mean (x±em) of the control rate is calculated and compared for statistical significance (p<0.05) with drug-treated rates using Dunnett's multiple comparison test.

MMP-9 = MMP-9 (Homo sapiens, UniProt P14780); assay: MMP-9 inhibition (thiopeptide or fluorescent peptide substrate); format: biochemical
Sequence of MMP-9 (P14780 94-707): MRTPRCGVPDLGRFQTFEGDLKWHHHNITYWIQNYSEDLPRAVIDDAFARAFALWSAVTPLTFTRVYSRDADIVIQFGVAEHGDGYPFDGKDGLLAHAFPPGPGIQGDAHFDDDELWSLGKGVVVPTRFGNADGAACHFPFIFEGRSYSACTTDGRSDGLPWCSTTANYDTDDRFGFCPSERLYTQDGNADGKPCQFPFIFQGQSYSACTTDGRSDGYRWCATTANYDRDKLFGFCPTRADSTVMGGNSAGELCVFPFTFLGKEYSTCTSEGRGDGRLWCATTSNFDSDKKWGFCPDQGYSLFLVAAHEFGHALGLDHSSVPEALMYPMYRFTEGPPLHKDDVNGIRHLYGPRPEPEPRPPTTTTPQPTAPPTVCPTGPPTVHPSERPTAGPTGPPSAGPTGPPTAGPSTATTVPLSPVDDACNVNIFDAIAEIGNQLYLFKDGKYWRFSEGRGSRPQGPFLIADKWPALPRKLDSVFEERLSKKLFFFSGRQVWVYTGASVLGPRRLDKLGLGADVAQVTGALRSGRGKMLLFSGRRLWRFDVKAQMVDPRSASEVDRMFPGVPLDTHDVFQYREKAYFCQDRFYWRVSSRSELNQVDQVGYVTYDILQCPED
Procedure: (§1) The enzyme activity is measured by the rate of the color increase. The thiopeptide substrate is made up fresh as a 20 mM stock in 100% DMSO and the DTNB is dissolved in 100% DMSO as a 100 mM stock and stored in the dark at room temperature. Both the substrate and DTNB are diluted together to 1 mM with substrate buffer (50 mM HEPES pH 7.5, 5 mM CaCl2) before use. The stock of enzyme is diluted with buffer (50 mM HEPES, pH 7.5, 5 mM CaCl2, 0.02% Brij) to the desired final concentration.
(§2) Alternatively, a fluorescent peptide substrate is used. In this test procedure, the peptide substrate contains a fluorescent group and a quenching group. Upon cleavage of the substrate by an MMP, the fluorescence that is generated is quantitated on the fluorescence plate reader. The assay is run in HCBC assay buffer (50mM HEPES, pH 7.0, 5 mM Ca^+2, 0.02% Brij, 0.5% Cysteine), with human recombinant MMP-1, MMP-9, or MMP-13. The substrate is dissolved in methanol and stored frozen in 1 mM aliquots. For the assay, substrate and enzymes are diluted in HCBC buffer to the desired concentrations. Compounds are added to the 96 well plate containing enzyme and the reaction is started by the addition of substrate.
(§3) For either the thiopeptide or fluorescent peptide test procedures, the slope of the line is calculated and represents the reaction rate. The linearity of the reaction rate is confirmed (r^2 >0.85).

MMP-13 = MMP-13 (Homo sapiens, UniProt P45452); assay: MMP-13 inhibition (thiopeptide or fluorescent peptide substrate); format: biochemical
Procedure: as §1, §2, §3

Compound	inhibition at 3 µM (THP-1 cells) [%]	IC50 [1] [nM]	IC50 (MMP-9) [nM]	IC50 (MMP-13) [nM]	IC50 (MMP-13; read-out: MMP-13 IC50) [nM]	IC50 ([1]; read-out: TACE IC50) [nM]
CC#CCOc1ccc(S(=O)(=O)N(C)c2c(C(=O)NO)cnc3c2c(C)nn3C)cc1 [Example 7, 4-[(4-But-2-ynyloxy-benzenesulfonyl)-methyl-amino]-1,3-dimethyl-1H-pyrazolo[3,4-b]pyridine-5-carboxylic acid hydroxyamide]	60	30	116			
CC#CCOc1ccc(S(=O)(=O)N(C)c2c(C(=O)NO)cnc3onc(C)c23)cc1 [Example 9, 4-[(4-But-2-ynyloxy-benzenesulfonyl)-methyl-amino]-3-methyl-isoxazolo[5,4-b]pyridine-5-carboxylic acid hydroxyamide]	57	5.9	244	150		
CC#CCOc1ccc(S(=O)(=O)N(C)c2c(C(=O)NO)cnc3c(OC)cccc23)cc1 [Example 11, 4-[(4-But-2-ynyloxy-benzenesulfonyl)-methyl-amino]-8-methoxy-quinoline-3-carboxylic acid hydroxyamide]	58	17	33		9.2	
CC#CCOc1ccc(S(=O)(=O)N(C)c2c(C(=O)NO)cnc3snc(C)c23)cc1 [Example 13, 4-[(4-But-2-ynyloxy-benzenesulfonyl)-methyl-amino]-3-methyl-isothiazolo[5,4-b]pyridine-5-carboxylic acid hydroxyamide]	42	14	95	34		
CC#CCOc1ccc(S(=O)(=O)N(C)c2c(C(=O)NO)cnc3c(Br)cccc23)cc1 [Example 99, 8-Bromo-4-[{[4-(2-butynyloxy)phenyl]sulfonyl} (methyl)amino]-N-hydroxy-3-quinolinecarboxamide]	32				27	82
